Measurements published in US6675105B2, “Structure-based identification of candidate compounds using three dimensional structures and models of Fc receptors” (Ilexus Pty Limited, priority 1998, dated 2004).

Key:
[1] = test system: monomeric human immunoglobulin IgG3; test: BIAcore binding of PsFcγRIIa to immobilized monomeric human IgG3; details: two site binding fit, 22° C., HBS pH 7.4
Description: (§1) Analysis of the interaction between PsFcγRIIa and monomeric immunoglobulin was performed using a BIAcorea 2000 biosensor (available from Pharmacia Biotech, Uppsala, Sweden) at about 22° C. in Hepes buffered saline (HBS; 10 mM Hepes [N-2-hydroxyethylpiperazine-N′-2-ethanesulfonic acid, available from Commonwealth Serum Laboratories, Parkville, Australia], pH 7.4, 150 mM NaCl, 3.4 mM EDTA and 0.005% Surfactant, available from Pharmacia). About 4000 to about 6000 response units (RU) of monomeric human immunoglobulin subclasses IgG1, IgG2, IgG3, and IgE (50 μg/ml of each) were covalently coupled to separate carboxymethylated dextran surface of each CM5 sensor-chips (available from BIAcore, Uppsala, Sweden) using a amine coupling kit (available from BIAcore), according to manufacturer's methods. A series of PsFcγRIIa concentrations (about 0.001 to about 1 mg/ml protein) was injected over each sensor-chip surface for about 1 minute at about 20 μl/min followed by about 3 minute dissociation phase. Following administration of the protein, the immunoglobulin surface was regenerated on each chip using a buffer containing 50 mM diethylamine pH 11.5, and 1 M NaCl. […]

[2] = test system: monomeric human immunoglobulin IgG1; test: BIAcore binding of PsFcγRIIa to immobilized monomeric human IgG1; details: 22° C., HBS pH 7.4
Chain of monomeric human immunoglobulin IgG1 (P01857 99-223 limits assumed): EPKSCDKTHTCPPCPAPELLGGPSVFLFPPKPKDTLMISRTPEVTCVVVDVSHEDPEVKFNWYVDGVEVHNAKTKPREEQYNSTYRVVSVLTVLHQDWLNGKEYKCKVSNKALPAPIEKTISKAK
Description: as §1

Chain of monomeric human immunoglobulin IgG3 (P01860 99-377 isoform P01860-1 limits assumed): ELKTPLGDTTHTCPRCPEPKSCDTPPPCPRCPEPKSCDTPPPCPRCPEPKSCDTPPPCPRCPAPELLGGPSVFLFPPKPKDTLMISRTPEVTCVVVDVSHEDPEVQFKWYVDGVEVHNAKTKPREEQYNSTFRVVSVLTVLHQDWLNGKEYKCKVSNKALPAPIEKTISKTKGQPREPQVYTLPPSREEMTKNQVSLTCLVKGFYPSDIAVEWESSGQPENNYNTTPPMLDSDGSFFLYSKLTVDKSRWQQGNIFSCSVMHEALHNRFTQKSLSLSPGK

## PsFcγRIIa: recombinant soluble human FcγRIIa protein from baculovirus-infected Sf-21 cells; two species, SEQ ID NO:3 and SEQ ID NO:12
[1]; at 50% of the sites
  affinity for IgG3: about 2.7×10^6 M^−1
[1]; at the remaining 50% of the sites
  affinity for IgG3: about 1.2×10^4 M^−1
[2]; at about 90% of the ligand binding sites
  affinity of PsFcγRIIa for IgG1: about 2.1×10^6 M^−1
[2]; at the remaining 10% of sites
  affinity of PsFcγRIIa for IgG1: about 2.3×10^4 M^−1
